Where two headings read alike, the source gives them in different places.
Tests used:
[1] = system: guinea-pig papillary muscle; assay: Electrophysiological test: action potential of guinea-pig papillary muscle (microelectrode technique); conditions: for minimal effective concentration: Cavia porcellus; for TIME 1 (Shortest time needed to attain suppression) / TIME 2 (Shortest time needed for reversal of effect by washing out of compound): at the listed bath concentration; for DEGREE OF SUPPRESSION: suppression of action potential at the listed bath concentration
Method: Electrophysiological studies were conducted on guinea-pig papillary muscle.
Using a microelectrode technique, action potentials were measured from guinea-pig papillary muscles. Action potentials were evoked by electrical stimulation (platinum electrode, Grass S88 stimulator, 1 Hz stimulation frequency; voltage, 10% above threshold). […] The preparations were electrically driven (pacing intervals 1 s, duration 2-5 ms). Slow (Ca2+ mediated) action potentials were evoked in a depolarizing solution (22 mmol/l K and 5 mmol/I Ca^2+) at 0,35 Hz stimulation frequency in order to ensure complete removal of inactivation of slow inward current.

[2] = system: isolated rabbit ear preparation; assay: Rabbit ear perfusion test (adrenaline-induced tone, perfusion pressure)
Method: Female New Zealand White rabbits (approximately 4kg) were anaesthetised with Sagatal ® (0.5ml/kg).
The central ear artery was cannulated using a 20 G catheter and the ear cut off at its base. Heparinised (5ml, 200 IU;ml) Krebs bicarbonate solution was perfused through the ear to expel the blood. The ear was placed in a warming jacket at 37°C and attached via the arterial catheter to the perfusion pump. Perfusion of the ear with aerated (95% 025% C02)Krebs bicarbonate solution at 37° C was commenced at a rate of 6.5ml/min using a Watson Marlow peristaltic pump. The perfusion pressure was monitored continuously using a pressure transducer (Type 4-327-1221, Consoliated Electrodynamics) coupled to a Devices Recorder.
Following an equilibration period of 15 minutes, increased tone was induced in the preparation by addition of adrenaline (1µg/ml) to the perfusion fluid.
After a stable tone was observed, various concentrations of test compounds were injected into the perfusion fluid and examined for their effect on the perfusion pressure. The effect of vehicle (0.2ml, 50% Krebs 50% ethanol) was also tested on the ear preparation.

cardiac myocytes = assay: Calcium current blockade in cardiac myocytes (voltage clamp); format: cell-based, guinea-pig; conditions: voltage clamp experiments of cardiac myocytes
Method: Ventricular myocytes were isolated from guinea-pig hearts by enzymatic dispersion of the cells using a method related to that employed by Mitra and Morad. After 5 minutes of perfusion at 37 °C on a Langendorff apparatus, the Tyrode solution was changed for a Ca-free solution for 5 minutes, after which the heart was perfused with a 40ml Ca-free solution containing 12mg collagenase (Type II, Sigma) and 10mg protease (Type XIV; Sigma). Perfusion with the soluticn containing enzymes was usually stopped within 5 minutes or as soon as dark areas appeared on the ventricles. The heart was then perfused with a Tyrode solution containing 0.8mM Ca for a few minutes, after which the ventricles were cut in small pieces and the isolated cells were shaken free in a 50ml beaker containing Tyrode solution.
Tyrode solution containing 5.4 mM KCI; 1.8 mM CaC12; 0.5 mM MgClz; 137.6 mM NaCI; 5 mM glucose and 11.6 mM HEPES. The pH was adjusted to 7.4 with NaOH. […] No change in the pH of the Tyrode solution could be measured after this addition. […]
Suction pipettes with resistance values between 2 and 5 MΩ were drawn from borosilicate glass (Jencons, H15/10) and heat polished. […] The results were recorded on magnetic tape or floppy disk. […] Calcium currents were measured as the difference between the maximum slow inward current and the current recorded after 400 ms.

[3] = system: spontaneously hypertensive rats (SHR ); assay: Antihypertensive test: mean arterial pressure in spontaneously hypertensive rats; format: in vivo, rat; conditions: statement in words
Method: The effect of Compound 3 on the mean arterial pressure was determined on spontaneously hypertensive rats (SHR ) by means of direct pressure transducing. Groups of 6 male rats of mass 210-300g were used. The average of ten pressure determinations was used. Normotensive (BD-9) rats were used as animal controls, while normal saline solution (containing some traces of polyethylene glycol and ethanol to aid in the solution of the test compounds) was used as solvent and as solvent control.
After verifying the mass of the animal, it was placed under general anaesthesia by administering 60mgikg pentobarbitone (Sagatal@) intraperitonially. The tracheal tube and carotid artery were both exposed by dissection. An intranule was introduced into the trachea as aid ventilation. The carolid artery was canalated and coupled to a pressure sensor. The sysolic, diastolic and mean arterial pressure were monitored via a Spacelab 514 patient monitor and registered on a Vitatek 551 plotter. During the experiment the exposed tissue of the rat was covered with guaze and kept damp with normal saline.
The drugs and solvent controls were administered intravenously into the dorsal penile vein after stabilization of the blood pressure (BP) had occurred. After drug administration, the BP was recorded every 5 minutes for a period of 30 min.

SMILES: CCCCCCCCNC12OC3C4C5CC(C6C5C3C61)C42 (racemic) [Compound 3, 8-η-Octylamino-8,11-oxopentacyclo[5.4.0 .0^2,6.0^3,10.0^5,9]undecane]
- minimal effective concentration ([1]; read-out: BATH CONCENTRATION (Lowest concentration of the compound to induce suppression of action potential), Table 3, guinea-pig papillary muscle): 62.5 µM
- minimal effective concentration ([1]; read-out: BATH CONCENTRATION (Lowest concentration of the compound to induce suppression of action potential), Table 4, racemates and optical isomers): 62.5 µM
- TIME 1 (Shortest time needed to attain suppression) ([1]; Table 3): 6 min
- TIME 2 (Shortest time needed for reversal of effect by washing out of compound) ([1]; Table 3): 6 min
- DEGREE OF SUPPRESSION ([1]; Table 3): complete
- TIME 1 (Shortest time needed to attain suppression) ([1]; Table 4): 6 min
- TIME 2 (Shortest time needed for reversal of effect by washing out of compound) ([1]; Table 4): 6 min
- DEGREE OF SUPPRESSION ([1]; Table 4): complete
- inhibition at 0.01 mg ([2]; Oryctolagus cuniculus, Table 5, dose 10 µg, read-out: Mean % change in perfusion pressure): 8.5%
- inhibition at 0.0316 mg ([2]; Oryctolagus cuniculus, Table 5, dose 31.6 µg, read-out: Mean % change in perfusion pressure): 11.5%
- inhibition at 0.1 mg ([2]; Oryctolagus cuniculus, Table 5, dose 100 µg, read-out: Mean % change in perfusion pressure): 16.5%
- inhibition at 0.316 mg ([2]; Oryctolagus cuniculus, Table 5, dose 316 µg, read-out: Mean % change in perfusion pressure): 26%
- inhibition at 1 mg ([2]; Oryctolagus cuniculus, Table 5, dose 1000 µg, read-out: Mean % change in perfusion pressure): 41%
- inhibition at 0.01 mg ([2]; Oryctolagus cuniculus, Table 6, dose 10 μg, read-out: Corrected mean % change in perfusion pressurre): 5.5%
- inhibition at 0.0316 mg ([2]; Oryctolagus cuniculus, Table 6, dose 31.6 μg, read-out: Corrected mean % change in perfusion pressurre): 5.5%
- inhibition at 0.1 mg ([2]; Oryctolagus cuniculus, Table 6, dose 100 μg, read-out: Corrected mean % change in perfusion pressurre): 11.5%
- inhibition at 0.316 mg ([2]; Oryctolagus cuniculus, Table 6, dose 316 μg, read-out: Corrected mean % change in perfusion pressurre): 20.5%
- inhibition at 1 mg ([2]; Oryctolagus cuniculus, Table 6, dose 1000 μg, read-out: Corrected mean % change in perfusion pressurre): 34.5%
- inhibition at 0.0316 mg ([2]; Oryctolagus cuniculus, Table 7, dose 31.6 μg, read-out: Mean % change in perfusion pressure): 9.4%
- inhibition at 0.1 mg ([2]; Oryctolagus cuniculus, Table 7, dose 100 μg, read-out: Mean % change in perfusion pressure): 17.3%
- inhibition at 0.316 mg ([2]; Oryctolagus cuniculus, Table 7, dose 316 μg, read-out: Mean % change in perfusion pressure): 24.7%
- inhibition at 1 mg ([2]; Oryctolagus cuniculus, Table 7, dose 1000 μg, read-out: Mean % change in perfusion pressure): 28.9%
- inhibition at 3.16 mg ([2]; Oryctolagus cuniculus, Table 7, dose 3160 μg, read-out: Mean % change in perfusion pressure): 27.6%
- Mean time taken to return to pre-dose volume ([2]; Table 5, dose 31.6 µg): 1.75 min
- Mean time taken to return to pre-dose volume ([2]; Table 5, dose 100 µg): 4.25 min
- Mean time taken to return to pre-dose volume ([2]; Table 5, dose 316 µg): 5.5 min
- Mean time taken to return to pre-dose volume ([2]; Table 5, dose 1000 µg): 8.75 min
- Mean time to return to predose value ([2]; Table 6, dose 100 μg): 4.25 min
- Mean time to return to predose value ([2]; Table 6, dose 316 μg): 7.0 min
- Mean time to return to predose value ([2]; Table 6, dose 1000 μg): 10.5 min
- Mean time taken to return to predose volume ([2]; Table 7, dose 31.6 μg): 6.3 min
- Mean time taken to return to predose volume ([2]; Table 7, dose 100 μg): 6.3 min
- Mean time taken to return to predose volume ([2]; Table 7, dose 316 μg): 8.5 min
- Mean time taken to return to predose volume ([2]; Table 7, dose 1000 μg): 19.3 min
- Mean time taken to return to predose volume ([2]; Table 7, dose 3160 μg): 15.0 min
- block of the calcium current (cardiac myocytes): pronounced frequency dependent block
- Antihypertensive activity [3]: Antihypertensive activity has also been obtained
